From US20090281049A1, “New use of ginsenoside compound-k in manufacturing medicaments” (priority 2006, published 2009)

Tests used:
[1] = tested on: Collagen Type II (CII) induced arthritis in rats; experiment: Preventive effect on Collagen Type II (CII) induced arthritis in rats; type: in vivo, Rat, SD strain; conditions: 9 mg/kg sc
Experimental: (§1) Inflammation-induced agent: Collagen Type II was dissolved in 0.1 mol/L acetic acid to make final concentration be 2 mg/ml collagen solution, and held in 4° C. overnight. The Collagen Type II solution was added to cold Freund's Adjuvant Incomplete by drops (Collagen Type II: Freund's Adjuvant Incomplete=1:1) on the next day, emulsified completely (Type II Collagen solution: Freund's Adjuvant Incomplete=1:1), and the final concentration of Collagen Type II was 1 mg/ml. The Collagen Type II emulsion was reserved in a refrigerator at 4° C.
(§2) Immune method: Each rat was immunized by being injected subcutaneously at 5 points on the back with 0.1 ml emulsion in each point, total of […] (contained 0.5 mg Collagen Type II), and immunized again in the same way 7 days later. An emulsion of 0.1 mol/L acetic acid and Freund's Adjuvant Incomplete was injected in control group. The swell values of the arthrosis in right hind ankle and foot were measured respectively by using a hydroplethismometer before injection and 20 days after immunization.
The Collagen Type II solution, which had been dissolved in acetic acid and held overnight, was adjusted to concentration 2 mg/ml, then added by drops slowly to Freund's Adjuvant Incomplete in proportion of 1:1. After the mixture was emulsified completely, each rat was injected subcutaneously at 5 points on the back with 0.1 ml emulsion in each point (total 0.5 ml in each rat, containing 0.5 mg Collagen Type II) for the first immunization. 7 days later, the second immunization was repeated in the same way.
The animals were divided into large dose group: Ginsenoside Compound-K, 10 mg/kg, iv, medium dose group: Ginsenoside Compound-K, 5 mg/kg, iv, small dose group: Ginsenoside Compound-K, 2.5 mg/kg, iv, Tripterygium Wilfordii Hook group: 1.5 mg/kg, po-, Enbrel group: 9 mg/kg, sc and blank control group: physiological saline 10 mg/kg, iv. The animals of administration groups were administered at the first immunization and stopped administering 8 days after the first immunization. The swell value of arthrosis in ankle and foot was measured by using hydroplethismometer before immunization and on day 20, 22, 24, 27 and 29 after the first immunization respectively. Swell rate and inhibition rate were calculated by the same method as the foregoing. Differences among groups were compared with t test. When the treatment finished, the arthroses in ankle and foot were taken for pathological examination.

[2] = tested on: Collagen Type II (CII) induced arthritis in rats; experiment: Treatment effect on Collagen Type II (CII) induced arthritis in rats; type: in vivo, Rat, SD strain; conditions: 9 mg/kg sc
Experimental: as §1, §2
Collagen Type II (CII) and Freund's Adjuvant Incomplete were ground into emulsion and were injected subcutaneously into the back of the rats for immunization. Until the 19th day, most parts of the pedal joint of the rats began to swell. Picked 40 rats out which were with swelled pedal joint and divided them into […] subsequently, i.e. 8 rats in each group. They are respectively […]: Ginsenoside Compound-K, 10 mg/kg, iv, medium dose group: Ginsenoside Compound-K, 5 mg/kg, iv, small dose group: Ginsenoside Compound-K, 2.5 mg/kg, iv, Enbrel group: 9 mg/kg, sc, Tripterygium Wilfordii Hook group: 1.5 mg/kg, po. and blank control group: physiological saline 10 mg/kg, iv. The rats were administered for 8 days consecutively. The swell value of the foot was measured respectively by using hydroplethismometer before inflammation induced and at different time after the onset of symptoms, then calculated swell rate and prohibition rate, and compared the differences among groups with t test.

enbrel
swell value ([1]; 0 day): 1.06 ± 0.04 mL | inhibition rate ([1]; 20 day): <30.52> % | swell rate ([1]; 20 day): (36.48 ± 15.50) % | swell value ([1]; 20 day): 1.38 ± 0.20 mL | inhibition rate ([1]; 22 day): <31.53> % | swell rate ([1]; 22 day): (35.30 ± 14.25) % | swell value ([1]; 22 day): 1.36 ± 0.22 mL | inhibition rate ([1]; 24 day): <35.50> % | swell rate ([1]; 24 day): (33.88 ± 13.57) % | swell value ([1]; 24 day): 1.34 ± 0.21 mL | inhibition rate ([1]; 27 day): <36.49> % | swell rate ([1]; 27 day): (32.16 ± 15.12) % | swell value ([1]; 27 day): 1.34 ± 0.20 mL | inhibition rate ([1]; 29 day): <36.99> % | swell rate ([1]; 29 day): (27.63 ± 10.87) % | swell value ([1]; 29 day): 1.31 ± 0.16 mL | swell value ([2]; 0 day): 1.00 ± 0.08 mL | inhibition rate ([2]; 20 day): <4.41> % | swell rate ([2]; 20 day): (51.65 ± 15.35% | swell value ([2]; 20 day): 1.51 ± 0.11 mL | inhibition rate ([2]; 22 day): <17.61> % | swell rate ([2]; 22 day): (49.63 ± 25.60) % | swell value ([2]; 22 day): 1.48 ± 0.15 mL | inhibition rate ([2]; 23 day): <20.98> % | swell rate ([2]; 23 day): (49.20 ± 19.86) % | swell value ([2]; 23 day): 1.48 ± 0.12 mL | inhibition rate ([2]; 25 day): <24.74> % | swell rate ([2]; 25 day): (46.43 ± 15.37) % | swell value ([2]; 25 day): 1.46 ± 0.11 mL | inhibition rate ([2]; 28 day): <27.88> % | swell rate ([2]; 28 day): (37.24 ± 17.23) % | swell value ([2]; 28 day): 1.36 ± 0.09 mL | inhibition rate ([2]; 31 day): <26.03> % | swell rate ([2]; 31 day): (36.24 ± 14.64) % | swell value ([2]; 31 day): 1.35 ± 0.08 mL
